# In USRE43632E1, “1,3-propane diol esters and ethers and methods for their use in drug delivery” (Scarista, Ltd., priority 1995, dated 2012):
# Like-named read-outs stand apart in the source and are kept apart here.
# Experiments:
# [1] = In vivo delivery, release and metabolism of diesters after oral or intravenous administration
# Protocol: (§1) GLA was administered in the form of either GLA-GLA or GLA-EPA and EPA was administered in the form of GLA-EPA or EPA-EPA. The diesters were given either orally by gavage or intravenously in the form of a 20% emulsion made using 2% of oat galactolipid as an emulsifier in doses from about 0.1 to 2.0 g/kg. Animals were killed after 1, 2, 4, 8 and 24 hours and plasma, red cells and liver collected. The presence of the unmetabolised diesters was identified by high pressure liquid chromatography. The presence of fatty acids derived from the diesters and of metabolites of those fatty acids was checked by lipid extraction of the liver, plasma or red cells, by separation of that lipid fraction into triglycerides, phospholipids, cholesterol esters and free fatty acids by thin layer chromatography, by methylation of the fatty acids derived from those separated fractions and by analysis of those fatty acids using gas chromatography using methods well described in standard texts.
# [2] = system: ASPC-1 human pancreatic cancer; assay: ASPC-1 human pancreatic cancer transplanted subcutaneously into nude mice; assay type: in vivo
# Protocol: As a specific example of the therapeutic efficacy of the diesters, the 1,3 GLA-EPA propane diol diester was tested in the treatment of the ASPC-1 human pancreatic -cancer transplanted subcutaneously into nude mice which because they lack thymus function are able to accept foreign transplants without rejection. 15 mice were each injected subcutaneously with 5 million ASPC-1 cells suspended in Matrigel and DMEM buffer. In all animals a tumour developed whose size could be measured using callipers and whose volume could be estimated from the linear dimensions. Tumour size in each animal was measured twice weekly for five weeks. The animals were divided into three groups. 5 animals were used as controls and received 10 g/kg corn oil per day only. 5 animals received 10 g/kg corn oil per day but in addition received two injections per week of a dose of 1.5 g/kg of the GLA-EPA diester. […] The other 5 animals instead of the corn oil received 10 g/kg/day of the GLA-EPA diester. The treatments were continued for three weeks and then the tumours were allowed to grow for a further two weeks before the animals were sacrificed and the tumours excised and weighed. The mean tumour weights were: control group, 1240±290 mg; intravenous GLA-EPA group, 820±180 mg; oral GLA-EPA group, 490±160 mg. […] Thus the diesters are biologically active ways of administering the various fatty acids. The diesters can therefore be reasonably expected to exert the many desirable effects of the fatty acids which have been noted in many publications in the literature (e.g. Horrobin D F, ed., Omega-6 Essential Fatty Acids: Pathophysiology and Roles in Clinical Medicine: Wiley-Liss, New York, 1990.Simopoulos A P et al, eds, Health Effects of Omega-3 Polyunsaturated Fatty Acids in Seafoods, Karger, Basel, 1991. Fats and Oils in Human Nutrition, World Health Organization, Rome, 1994. Unsaturated Fatty Acids: Nutritional and Physiological Significance. British Nutrition Foundation, Chapman and Hall, London, 1992).
# [3] = in vivo, po
# Protocol: as §1
# [4] = system: normal fibroblast line, a breast cancer line and a malignant melanoma line; settings: all cell lines: normal fibroblast, results set out in EPA-0 675 103; cited from earlier work
# fasted rats = assay: Gastrointestinal ulceration in fasted rats; settings: indomethacin 5-30 mg/kg or same amount as diester, sacrificed after 24 hours
# Protocol: Doses of indomethacin known to cause gastrointestinal ulceration (5-30 mg/kg) were given to fasted rats either in the form of free indomnethacin or the same amount of indomethacin in a 1,3-propane diol diester with GLA in the other position. The animals were sacrificed after 24 hours and the whole gastrointestinal tract examined for ulceration.
structure (smiles),measurement,setting,value
"CC/C=C\C/C=C\C/C=C\C/C=C\C/C=C\CCCC(=O)OCCCOC(=O)CCCC/C=C\C/C=C\C/C=C\CCCCC [GLA-EPA, 1-(z,z,z-Octadeca-6,9,12-trienoyloxy)-3-(z,z,z,z,z-eicosa-5,8,11,14,17-pentaenoyloxy)propane]",in vivo release of free GLA and EPA,[1]; intravenous infusion and oral administration of the diester emulsion,rapid in vivo release of free GLA and EPA
same,tumour growth,[2]; both oral and intravenous administration,substantially inhibited
same,mean tumour weight,"[2]; intravenous, 1.5 g/kg two injections per week for three weeks, 20% emulsion, tumours weighed at five weeks",820 ± 180 mg
same,side effects or distress in the animals,"[2]; mouse, in vivo",without causing any side effects or distress
same,tolerability of the intravenous emulsion,"[2]; nude mice, 20% emulsion with 2% oat galactolipid, 1.5 g/kg twice weekly",very well tolerated and caused no haemolysis or thrombophlebitis
"CCCCC/C=C\C/C=C\C/C=C\CCCCC(=O)OCCCOC(=O)CCCC/C=C\C/C=C\C/C=C\CCCCC [GLA-GLA, 1,3-(di-z,z,z-Octadeca-6,9,12-trienoyloxy)propane]",absorption and release of active moieties,[3],absorbed following oral administration and to release their active moieties
"CCCCC/C=C\C/C=C\C/C=C\CCCCC(=O)OCCCOC(=O)Cc1c(C)n(C(=O)c2ccc(Cl)cc2)c2ccc(OC)cc12 [GLA-indomethacin, 1-(z,z,z-Octadeca-6,9,12-trienoyloxy)-3-(I-(4-chlorobenzoyl)-5-methoxy-2-methyl-indole-3-acetyloxy)propane]",absorption and release of active moieties,[3],absorbed following oral administration and to release their active moieties
"COc1ccc2c(c1)c(CC(=O)O)c(C)n2C(=O)c1ccc(Cl)cc1 [indomethacin, reference compound]",intracellular level after incubation (cell penetration),[4],very low
same,ulceration of the whole gastrointestinal tract,fasted rats,extensive ulceration
CCCCC/C=C\C/C=C\C/C=C\CCCCC(=O)OCCCOC(=O)Cc1c(C)n(C(=O)c2ccc(Cl)cc2)c2ccc(OC)cc12 [indomethacin-GLA],intracellular level after incubation (cell penetration),[4],very substantial amounts of both indomethacin-GLA and free indomethacin
CCCCCC=CCC=CCC=CCCCCC(=O)OCCCOC(=O)c1cccnc1 [niacin-GLA],absorption and release of active moieties,[1]; oral administration,absorbed following oral administration and to release their active moieties
